Results as given in patent US9351944B1, “Malodor eliminating compositions” (TAKASAGO INTERNATIONAL CORPORATION, priority 2008, dated 2016).
Values joined by “and” are separate entries in the source; they are usually repeats but may differ in a detail not shown here. Equal values may be shown once.

What was measured:
[1] = Methyl mercaptan chemical suppression by Group A and Group B compounds (GC-PFPD); conditions: test material 200 ppm, malodor material 10 ppm, room temperature 2 hours, ethanol/deionized water
Protocol: 2 μl of 0.5%(w/v) of sodium methoxide in deionized water, 20 μl of 1% (w/v) test malodor eliminating material in ethanol, 80 μl of ethanol, and 900 μl of deionized water were added into a 2 ml GC vial, left to sit at room temperature for 2 hours, and analyzed using Multipurpose sampler-GC-PFPD (Gas Chromatography-Pulsed Flame Photometric Detector) (GC-PFPD)MPS2 (Gerstel)—GC; 6890N (Agilent)—PFPD; model 5380 (OI Analytical). As a control, ethanol was added instead of test malodor eliminating materials. The final concentration of test OE material and malodor material are 200 ppm and 10 ppmm, respectively. Malodor suppression was calculated as follows: Malodor Suppression (%)=(GC area of control sample−GC area of test_sample)/GC area of control sample×100

[2] = Suppression of methyl mercaptan (Example 12, GC-PFPD); conditions: test material 0.2%, malodor material 10 ppm, room temperature 2 hours, triplicate
Protocol: 100 μl of 0.01%(w/v) of test malodor material in ethanol, 2 μl of neat flavor oil and 900 μl of deionized water were added into a 4 ml vial and left to sit at room temperature for 2 hours. As a control, ethanol was added instead of the malodor reducing compound. The final concentration of test material and malodor material are 0.2% and 10 ppmm, respectively. 3 ml of ethanol was added into the resulting vial and the thiol level was analyzed using GC-PFPD as described above. Each material was tested in triplicate. Malodor suppression was calculated as described in the example 1 above.

[3] = Propyl mercaptan chemical suppression by malodor eliminating materials (GC-PFPD); conditions: OE material 0.2%, malodor material 10 ppm, room temperature 2 hours, triplicate
Protocol: (§1) The selected OE materials were tested for propyl, allyl, and furfuryl mercaptan suppression. 100 μl of 0.01%(w/v) of test malodor material in ethanol, 2 μl of neat flavor oil and 900 μl of deionized water were added into a 4 ml vial and left to sit at room temperature for 2 hours. As a control, ethanol was added instead of test flavor materials. The final concentration of test OE material and malodor material are 0.2% and 10 ppm, respectively. 3 ml of ethanol was added into the resulting vial and the thiol level was analyzed using GC-PFPD. Each material was tested in triplicate. Malodor suppression was calculated as described in the example 1 above.

[4] = Allyl mercaptan chemical suppression by malodor eliminating materials (GC-PFPD); conditions: OE material 0.2%, malodor material 10 ppm, room temperature 2 hours, triplicate
Protocol: as §1

[5] = Furfuryl mercaptan chemical suppression by malodor eliminating materials (GC-PFPD); conditions: OE material 0.2%, malodor material 10 ppm, room temperature 2 hours, triplicate
Protocol: as §1

[6] = Methyl mercaptan suppression by Group A and Group B materials alone and combined (synergistic or additive activity); conditions: in ethanol, room temperature 2 hours
Protocol: The synergistic or additive activity of methyl mercaptan inhibition of malodor eliminating materials was tested. 5-40 μl of 1% (w/v) test OE materials in ethanol was placed into a 2 ml GC vial. Ethanol was added into this vial up to 1000 μl. 2 μl of 0.5%(w/v) of sodium methoxide in deionized water was added into the resulting vial, left to sit at room temperature for 2 hours, and analyzed using Multipurpose sampler-GC-PFPD. As a control, ethanol was added instead of test OE materials. Malodor suppression was calculated as described in Example 1 above.

piperitone-d [[…]]
methyl mercaptan suppression (%) [1]: 37% | methyl mercaptan suppression (%) [2]: 45% | Malodor reduction (%) propyl mercaptan [3]: <20% | Malodor reduction (%) allyl mercaptan [4]: 51% | Malodor reduction (%) furfuryl mercaptan [5]: 64% | methyl mercaptan suppression (%) A alone ([6]; Group A level 200 ppm): 8% | methyl mercaptan suppression (%) A alone ([6]; Group A level 200 ppm, listed as PIPERITONED): 12%

CCCCCC#CC(=O)OC [METHYL HEPTIN CARE, methyl heptin carbonate]
methyl mercaptan suppression (%) [1]: 92% | methyl mercaptan suppression (%) [2]: 80% | Malodor reduction (%) propyl mercaptan [3]: 44% | Malodor reduction (%) allyl mercaptan [4]: 63% | Malodor reduction (%) furfuryl mercaptan [5]: 69% | methyl mercaptan suppression (%) A alone ([6]; Group A level 50 ppm, listed as METHYL HEP CARB): 67% and 53%

C/C=C/C(=O)C1=C(C)C=CCC1(C)C [DAMASCENONE, damascenone]
methyl mercaptan suppression (%) [1]: 100% | methyl mercaptan suppression (%) [2]: 81% | Malodor reduction (%) propyl mercaptan [3]: 49% | Malodor reduction (%) allyl mercaptan [4]: 67% | Malodor reduction (%) furfuryl mercaptan [5]: 67% | methyl mercaptan suppression (%) A alone ([6]; Group A level 50 ppm): 28% and 17%
